Experimental data as given in patent US6288067A, “Prophylactic or therapeutic agents for drug-induced renal injury” (Suntory Limited, priority 1998, dated 2001).

How the values were obtained:
[1] = as reported in Japanese Patent Public Disclosure No. 25323/84; cited from earlier work
[2] = system: cyclosporin-induced renal injury rats; test: Histopathological findings (arteriolopathy) in renal tissue samples, HE and periodic acid-Shiff staining; format: in vivo, Sprague-Dawley rats
Procedure: (§1) Sprague-Dawley rats at the age of 8 to 10 weeks (supplied from Charles River) (300 g) were divided into the following three experimental groups, and examined by comparison. The animals were grown with a low-salt (0.05%) feed during the experimental period of 6 weeks, and treated for 5 weeks from the second to last weeks of the experiment as follows.
(§2) Each group was observed during the experimental period of 6 weeks. The blood pressure, renal cortical NOS activity and blood BP level were determined by the procedures described below. After 6 weeks, blood was collected from the abdominal aorta under anesthesia with phenobarbital, and then the kidney was perfused with physiological saline, then extracted and histologically examined for the effects of BH4 administration on cyclosporin-induced renal injury.
After collecting urine and measuring blood pressure at week 6, the animals were abdominally incised under anesthesia, bled from the abdominal aorta and perfused with physiological saline via this site. The extracted kidney was fixed in a 10% formaldehyde solution, embedded in paraffin, then sliced by a microtome into renal tissue samples of 4 μm. The samples were stained with hematoxylin/eosin (HE) and periodic acid-Shiff. The incidences of pathological findings, i.e. arteriolopathy in the rat renal tissue samples were examined by comparison.
(§3) Group-to-group statistic analyses were made by two-way ANOVA. In the following analyses, the significance level was p<0.05.

[3] = Biopterin (BP) level in blood by HPLC in cyclosporin-induced renal injury rats; format: in vivo, Sprague-Dawley rats; settings: average; cyclosporin 15 mg/kg/day s.c. plus BH4 dihydrochloride 10 mg/kg/day oral
Procedure: as §1, §2, §3

NOS (NADPH-diaphorase) = test: Renal histochemistry, NADPH-diaphorase staining; format: in vivo, Sprague-Dawley rats
Procedure: as §1, §2
(§4) Sections were prepared from frozen renal tissues and stained with NADPH-diaphorase for evaluating NOS activity on the tissues. The tissues were also stained with a monoclonal antibody against the macrophage cell membrane antigen ED-1 to examine the NOS isoform.

ED-1-positive cells = test: Renal histochemistry, staining with monoclonal antibody against macrophage cell membrane antigen ED-1; format: in vivo, Sprague-Dawley rats; settings: frozen renal tissues; cyclosporin 15 mg/kg/day s.c.; BH4 group: plus BH4 dihydrochloride 10 mg/kg/day oral
Procedure: as §1, §2, §4

rats = test: Acute toxicity, oral, rats; settings: rats, oral route
[4] = Acute toxicity, oral, rats; settings: rat, in vivo, po
[5] = Blood pressure by the tail-cuff method in cyclosporin-induced renal injury rats; format: in vivo, Sprague-Dawley rats; settings: until the end of observation (6 weeks); cyclosporin 15 mg/kg/day s.c.; BH4 group: plus BH4 dihydrochloride 10 mg/kg/day oral
Procedure: as §1, §2
Blood pressure was measured by the tail-cuff method at the start of the experiment and after 2, 4 and 6 weeks.
as §3

renal tissue NOS = test: Renal cortical NOS activity (3H-citrulline produced from 3H-arginine) in cyclosporin-induced renal injury rats; format: in vivo, Sprague-Dawley rats; settings: orally administered BH4, cyclosporin-treated rats
Procedure: as §1, §2
NOS activity was determined by measuring ^3 H-citrulline produced by renal tissue NOS using 3H-arginine.
as §3

C[C@H](O)[C@H](O)C1CNc2nc(N)[nH]c(=O)c2N1 (stereo partly drawn) [(6R,S)-5,6,7,8-tetrahydrobiopterin]
toxicity in words [1]: only slightly toxic

C[C@H](O)[C@H](O)[C@H]1CNc2nc(N)[nH]c(=O)c2N1 [BH4, (6R)-L-erythro-5,6,7,8-tetrahydrobiopterin]
histopathological findings of arteriolopathy, conclusion in words ([2]; model rats, BH4 orally administered): remarkably improved histopathological findings
arteriolopathy, result in words with significance ([2]; p<0.0001, cyclosporin 15 mg/kg/day s.c., BH4 group: plus BH4 dihydrochloride 10 mg/kg/day oral): significantly (p<0.0001) inhibited arteriolopathy
Percentage of the incidence of pathological findings in renal tissues: Arteriolopathy ([2]; ± SE, week 6, control group 0.00 ± 0.00, cyclosporin 15 mg/kg/day s.c., BH4 group: plus BH4 dihydrochloride 10 mg/kg/day oral): 36.814 ± 2.093%
decrease of blood BP level as compared with CyA group [3]: 0.002 nmol
NADPH-diaphorase stainability (NOS (NADPH-diaphorase); frozen renal tissues, cyclosporin 15 mg/kg/day s.c., BH4 group: plus BH4 dihydrochloride 10 mg/kg/day oral): recovered the NADPH-diaphorase stainability
functions of vascular endothelial NOS (NOS (NADPH-diaphorase); renal histochemistry, cyclosporin plus oral BH4 dihydrochloride): normalized the functions of vascular endothelial NOS
invasions of ED-1-positive cells (ED-1-positive cells): decreased invasions of ED-1-positive cells
toxicity in words (rats): little toxicity
LD50 [4]: ≥ 2000 mg/kg
Blood pressure [5]: kept at a normal level
vascular endothelial NOS activity level / function (renal tissue NOS): increased vascular endothelial NOS activity level
